The experiment deals with mushroom tyrosinase. The experiment is described as follows: spectrophotometric dopachrome assay (L-DOPA substrate, […] nm). The class given is biochemical.

Molecules are shown by their SMILES.

For the molecule `C=C1C(=O)OC2C=C(C)CC3C=C(CCC=C(C)CCC12)C(=O)O3` (stereo not shown) [ovatodiolide], the IC50 (in general, the concentration that gives 50% inhibition) is 253 µM.

For the origin of these results see PMC3382824, “Antioxidative Characteristics of Anisomeles indica Extract and Inhibitory Effect of Ovatodiolide on Melanogenesis” (2012).
